Our source for the Activity values is ChEMBL document CHEMBL3826958, “Zinc-mediated binding of a low-molecular-weight stabilizer of the host anti-viral factor apolipoprotein B mRNA-editing enzyme, catalytic polypeptide-like 3G” (Bioorg Med Chem, 2016).

The source made the active and inactive calls. No cut-off for these calls is given here.

In experiment [1] the target is DNA dC->dU-editing enzyme APOBEC-3G (Homo sapiens) (UniProt Q9HC16). Description: Binding affinity to FLAG-tagged human A3G expressed in human 293T cells at 13 uM incubated for 16 hrs by streptavidin agarose based immunoblot analysis. Type of experiment: cell-based.
The target is the same in experiment [2]. Kind of experiment: Binding affinity to FLAG-tagged human A3G expressed in human 293T cells at 13 uM incubated for 16 hrs in presence of EDTA by streptavidin agarose based immunoblot analysis. The experiment is classed as cell-based.

Sequence of DNA dC->dU-editing enzyme APOBEC-3G (Homo sapiens) (Q9HC16 whole entry): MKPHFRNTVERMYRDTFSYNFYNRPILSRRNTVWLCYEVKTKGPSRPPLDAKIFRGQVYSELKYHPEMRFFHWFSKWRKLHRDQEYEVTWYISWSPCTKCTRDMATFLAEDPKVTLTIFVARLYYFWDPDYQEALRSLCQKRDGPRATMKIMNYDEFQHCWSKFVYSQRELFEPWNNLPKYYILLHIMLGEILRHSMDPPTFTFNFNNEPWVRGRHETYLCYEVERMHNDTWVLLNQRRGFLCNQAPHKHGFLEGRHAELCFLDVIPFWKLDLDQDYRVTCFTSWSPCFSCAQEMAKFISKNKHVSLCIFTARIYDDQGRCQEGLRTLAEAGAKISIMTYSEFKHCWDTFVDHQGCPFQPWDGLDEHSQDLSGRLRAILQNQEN

Turning to `O=C(CCCC[C@@H]1SC[C@@H]2NC(=O)N[C@@H]21)NCCCCCCOC(=O)Nc1cc(CNCCS)nc(CNCCS)c1`, the result in experiment [1] was Active. Further, in experiment [2], the outcome was inactive.
With `COC(=O)CCCC[C@@H]1SC[C@@H]2NC(=O)N[C@@H]21`, the result in experiment [1] was inactive.
